Test results from US20230257715A1, “COMPOSITIONS AND METHODS FOR REGULATING ENTEROENDOCRINE CELL DIFFERENTIATION AND USES THEREOF” (The Children's Medical Center Corporation, priority 2020, published 2023).

B1: betacellulin (protein, UniProt P35070 32-111, looked up)
Betacellulin: DGNSTRSPETNGLLCGDPEENCAATTTQSKRKGHFSRCPKQYKHYCIKGRCRFVVAEQTPSCVCDEGYIGARCERVDLFY
modifications: Betacellulin
notes: a ligand of both EGFR and the ErbB4 receptor

How the values were obtained:
human duodenal enteroids = experiment: qPCR analysis of enteroendocrine and lineage markers in enteroids; assay type: cell-based; details: for EE cell marker expression on inclusion in DM: compared with GM and DM without betacellulin or PF, qPCR
Text: For differentiation, enteroids were passaged and grown in GM for two days, to allow for ISC expansion, after which the organoids were transitioned to tissue-specific differentiation media (DM) with additional small molecules added as described (TABLE 1A and TABLE 1B). Media was changed every two days, with Tubastatin A being removed after the second day of differentiation. Enteroids and rectoids were taken for analysis after 14 days.
Total RNA was purified from individual wells using TRI®Reagent (Sigma) and the Direct-zol™ RNA kit (Zymo Research), following the manufacturer's protocol. RNA concentration was determined using a NanoDrop™ 1000 spectrophotometer (Life Technologies). RNA was treated with DNAse (Promega) and reverse transcribed using the High-Capacity cDNA Reverse Transcription Kit (Life Technologies). Gene expression analysis was then performed by Real Time quantitative PCR (qPCR) using a QuantStudio 6 Flex thermocycler (Life Technologies). Taqman primers from Life Technologies (TABLE 3) were used. 18S transcripts were used as the internal control and data were expressed using the 2^−ddCt method with Ct limit of 40. Fold change, unless otherwise stated, was compared to total RNA derived from adult whole mucosal tissue biopsies.

GATA4-NKX2-5 = details: in vitro, literature (Valimaki et al. 2017); cited from earlier work
[1] = literature (Sathyapalan et al. 2010); cited from earlier work

Row | Molecule | EE cell marker expression on inclusion in DM (human duodenal enteroids) | GATA4-NKX2-5 transcriptional activity (GATA4-NKX2-5) | human serum GIP levels [1] | EE lineage marker mRNA expression when added to DM (qPCR) (human duodenal enteroids; compared to enteroids grown in G2D12, FIG. 2.1A)
1 | Nc1ccc(-c2cnc(N)c(-c3ccc(Cl)cc3)c2)cn1 [PF, PF06260933] | increased expression of EE cell markers | – | – | –
2 | Cc1c(C(=O)NN2CCCCC2)nn(-c2ccc(Cl)cc2Cl)c1-c1ccc(Cl)cc1 [Rim, rimonabant] | – | increase the activity of GATA4-NKX2-5 transcriptional activity in vitro | increase human serum GIP levels | induced expression of multiple EE lineage markers (CHGA, NEUROD1, NEUROG3, SST, and GIP) when added to DM, with Rim having a much larger effect
3 | B1 | increased expression of EE cell markers | – | – | –
